US20250026754A1, “SMALL MOLECULE INHIBITORS OF UBIQUITIN SPECIFIC PROTEASE 1 (USP1) AND USES THEREOF” (INSILICO MEDICINE IP LIMITED, priority 2021, published 2025)

Test system: MDA-MB-436 cells
Assay: MDA-MB-436 breast cancer cell proliferation assay (CellTiter-Glo)
Type: cell-based
Settings: Homo sapiens, 168 h, 7 days
Method: MDA-MB-436 cells were grown in Leibovitz's L-15 medium with 10 μg/ml insulin, 16 μg/ml glutathione, 10% FBS. Cells were passaged at subconfluence after trypsinization and maintained in incubators at 37° C. in a humidified atmosphere with 5% CO2.
Cell proliferation was determined using CellTiter-Glo® Luminescent Cell Viability Assay (Promega, #G7573). MDA-MB-436 cells were seeded in 384-well plates and allowed to attach for 24 h. Compounds were added into 384-well plate by ECHO, and incubated at 37 C° in a humidified atmosphere with 5% CO2. After 7 days, CellTiter-Glo was added into 384 well plates, contents were mixed on an orbital shaker at […] for 2 min before centrifuging the plate for 2 min at 1000 rpm. After incubation at RT for 30 min, luminescence was read on envision.

An IC50 of 50 to 1000 nM was found for `COc1ncnc(C2CC2)c1-c1nn(C)c2c1CN(c1ccc(-n3nc(C(F)(F)F)cc3C)cn1)CC2` [Example 15, 3-(4-cyclopropyl-6-methoxypyrimidin-5-yl)-1-methyl-5-(5-(5-methyl-3-(trifluoromethyl)-1H-pyrazol-1-yl)pyridin-2-yl)-4,5,6,7-tetrahydro-1H-pyrazolo[4,3-c]pyridine] in this work.
